Reference: PubChem BioAssay (NCI)
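Compound exposure: 48 hours, 5 concentrations, 96-well plates. Abbreviation: GI50, concentration required for 50% inhibition of growth. The concentration for full growth arrest is given as TGI.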

Columns and labels:
Assay in all cases: NCI-60 cell line screen, 48 h
[1] = tested on: CCRF-CEM leukemia
[2] = tested on: COLO 205 colon
[3] = tested on: HCT-15 colon
[4] = tested on: LOX IMVI melanoma
[5] = tested on: NCI-H226 lung
[6] = tested on: OVCAR-3 ovarian
[7] = tested on: OVCAR-5 ovarian
[8] = tested on: SW-620 colon

Compound	GI50 [1] [µM]	TGI [1] [µM]	GI50 [2] [µM]	TGI [2] [µM]	GI50 [3] [µM]	TGI [3] [µM]	GI50 [4] [µM]	TGI [4] [µM]	GI50 [5] [µM]	TGI [5] [µM]	GI50 [6] [µM]	TGI [6] [µM]	GI50 [7] [µM]	TGI [7] [µM]	GI50 [8] [µM]	TGI [8] [µM]
CCC[C@H](N[C@@H]1CCc2cc(F)cc(F)c2C1)C(=O)Nc1cn(C(C)(C)CNCC(C)(C)C)cn1	14.7	> 63.6	12.5	26.9	15.7	75.2	15.5	30.6	16.5	52.9	15.3	42.9	21.1	> 77.7	25	> 100
CCc1c2c(nc3cc4c(cc13)OCO4)-c1cc3c(c(=O)n1C2)COC(=O)[C@@]3(CC)OC(=O)CN	< 0.01	< 0.01	0.133	1.13	0.0236	> 100	< 0.01	0.0902	< 0.01	< 0.01	< 0.01	0.315	< 0.01	0.417	< 0.013	
CO[C@@H]1[C@@H](OC2OC(C)C(OC3CC(C)(O)C(OC(=O)CC(C)C)C(C)O3)C(N(C)C)C2O)[C@@H](CC=O)C[C@@H](C)C(=O)/C=C/C2O[C@H]2C[C@@H](C)OC(=O)C[C@H]1OC(C)=O (stereo partly drawn)		34.3		26.2		36		30.4		33.5		40.5		31.8		35.8
O=C1c2ccccc2C(=O)N1c1ccc(S(=O)(=O)Nc2ncccn2)cc1	9.79	> 100	> 100	> 100	> 100	> 100	> 100	> 100	> 100	> 100	> 100	> 100	> 100	> 100	> 100	> 100
CC(=O)OC1COC(S[As](C)C)C(OC(C)=O)C1OC(C)=O (stereo not drawn)	0.0444	0.152	0.575	4.96	0.191	1.36	0.223	0.691	1.47	7.9	< 0.0138	0.0404	0.226	1.8	0.341	1.69
C(=C1c2ccccc2-c2ccccc21)c1ccccn1	7.8	46	8.56	29.5	6.21	49.3	8.52	25.8	14.2	> 100	3.66	15.9	21.8	> 100	4.03	49.4
COC(=O)CCC(=O)c1c(C)[nH]c(/C=C2\N=C(c3ccc[nH]3)C=C2OC)c1C	0.199	2.37	1.04	3.29	0.292	1.89	0.0666	0.261	1.08	3.27	0.353	1.7	1.48	5.52	0.318	1.32
